# From PubChem BioAssay (NCI)
#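 Exposure lasted 48 hours, with cells grown in 96-well plates and compounds tested at five concentrations. Definition used: TGI = concentration required for complete inhibition of growth.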
# Tests used:
# Experiment in all cases: NCI anticancer screen, dose series, 48 h
# TK-10 renal = tested on: TK-10 renal
# KM12 colon = tested on: KM12 colon
# UACC-62 melanoma = tested on: UACC-62 melanoma
# MOLT-4 leukemia = tested on: MOLT-4 leukemia
# SNB-19 CNS = tested on: SNB-19 CNS
# IGROV1 ovarian = tested on: IGROV1 ovarian
# SR leukemia = tested on: SR leukemia
# KM20L2 colon = tested on: KM20L2 colon
# OVCAR-8 ovarian = tested on: OVCAR-8 ovarian
# SF-539 CNS = tested on: SF-539 CNS
# SNB-75 CNS = tested on: SNB-75 CNS
# SK-MEL-28 melanoma = tested on: SK-MEL-28 melanoma
# OVCAR-3 ovarian = tested on: OVCAR-3 ovarian
# HCT-15 colon = tested on: HCT-15 colon
# SK-OV-3 ovarian = tested on: SK-OV-3 ovarian
# NCI-H23 lung = tested on: NCI-H23 lung
# RPMI-8226 leukemia = tested on: RPMI-8226 leukemia
# ACHN renal = tested on: ACHN renal
# DMS 114 small cell lung = tested on: DMS 114 small cell lung
# SK-MEL-2 melanoma = tested on: SK-MEL-2 melanoma
# HCC-2998 colon = tested on: HCC-2998 colon
# RXF 393 renal = tested on: RXF 393 renal
# NCI-H226 lung = tested on: NCI-H226 lung
# COLO 205 colon = tested on: COLO 205 colon
# U251 CNS = tested on: U251 CNS
# DMS 273 small cell lung = tested on: DMS 273 small cell lung
# SW-620 colon = tested on: SW-620 colon
# LXFL 529 NSCLC = tested on: LXFL 529 NSCLC
# HT29 colon = tested on: HT29 colon
# EKVX NSCLC = tested on: EKVX NSCLC
# UO-31 renal = tested on: UO-31 renal
# HCT-116 colon = tested on: HCT-116 colon
# SNB-78 CNS = tested on: SNB-78 CNS
# SK-MEL-5 melanoma = tested on: SK-MEL-5 melanoma
# 786-0 renal = tested on: 786-0 renal
# MALME-3M melanoma = tested on: MALME-3M melanoma
# UACC-257 melanoma = tested on: UACC-257 melanoma
# SF-295 CNS = tested on: SF-295 CNS
# OVCAR-5 ovarian = tested on: OVCAR-5 ovarian
# SF-268 CNS = tested on: SF-268 CNS
# M19-MEL melanoma = tested on: M19-MEL melanoma
# SN12C renal = tested on: SN12C renal
# CAKI-1 renal = tested on: CAKI-1 renal
# K-562 leukemia = tested on: K-562 leukemia
# A549 NSCLC = tested on: A549 NSCLC
# BT-549 breast = tested on: BT-549 breast
# NCI-H460 lung = tested on: NCI-H460 lung
# MDA-N = tested on: MDA-N
# DU-145 prostate = tested on: DU-145 prostate
# MCF7 breast = tested on: MCF7 breast
# A498 renal = tested on: A498 renal
# OVCAR-4 ovarian = tested on: OVCAR-4 ovarian
# PC-3 prostate = tested on: PC-3 prostate
# NCI/ADR-RES ovarian = tested on: NCI/ADR-RES ovarian
# NCI-H522 lung = tested on: NCI-H522 lung
# MDA-MB-435 = tested on: MDA-MB-435
# LOX IMVI melanoma = tested on: LOX IMVI melanoma
# MDA-MB-231 breast = tested on: MDA-MB-231 breast
# M14 melanoma = tested on: M14 melanoma
# T-47D breast = tested on: T-47D breast
# CCRF-CEM leukemia = tested on: CCRF-CEM leukemia
# HL-60(TB) leukemia = tested on: HL-60(TB) leukemia
# HOP-62 NSCLC = tested on: HOP-62 NSCLC
# HS 578T breast = tested on: HS 578T breast
# HOP-92 NSCLC = tested on: HOP-92 NSCLC
smiles,measurement,setting,value
COc1ccc2c(c1)OCCCN(C)OC2c1ccccc1 (stereo not drawn),TGI,TK-10 renal,> 100 µM
same,TGI,KM12 colon,> 100 µM
same,TGI,UACC-62 melanoma,> 100 µM
same,TGI,MOLT-4 leukemia,> 100 µM
same,TGI,SNB-19 CNS,> 100 µM
same,TGI,IGROV1 ovarian,> 100 µM
same,TGI,SR leukemia,> 100 µM
same,TGI,KM20L2 colon,> 100 µM
same,TGI,OVCAR-8 ovarian,> 100 µM
same,TGI,SF-539 CNS,> 100 µM
same,TGI,SNB-75 CNS,> 100 µM
same,TGI,SK-MEL-28 melanoma,> 100 µM
same,TGI,OVCAR-3 ovarian,> 100 µM
same,TGI,HCT-15 colon,> 100 µM
same,TGI,SK-OV-3 ovarian,> 100 µM
same,TGI,NCI-H23 lung,> 100 µM
same,TGI,RPMI-8226 leukemia,> 100 µM
same,TGI,ACHN renal,> 100 µM
same,TGI,DMS 114 small cell lung,> 100 µM
same,TGI,SK-MEL-2 melanoma,> 100 µM
same,TGI,HCC-2998 colon,> 100 µM
same,TGI,RXF 393 renal,> 100 µM
same,TGI,NCI-H226 lung,> 100 µM
same,TGI,COLO 205 colon,> 100 µM
same,TGI,U251 CNS,> 100 µM
same,TGI,DMS 273 small cell lung,> 100 µM
same,TGI,SW-620 colon,> 100 µM
same,TGI,LXFL 529 NSCLC,> 100 µM
same,TGI,HT29 colon,> 100 µM
same,TGI,EKVX NSCLC,> 100 µM
same,TGI,UO-31 renal,> 100 µM
same,TGI,HCT-116 colon,> 100 µM
same,TGI,SNB-78 CNS,> 100 µM
same,TGI,SK-MEL-5 melanoma,> 100 µM
same,TGI,786-0 renal,> 100 µM
same,TGI,MALME-3M melanoma,> 100 µM
same,TGI,UACC-257 melanoma,> 100 µM
same,TGI,SF-295 CNS,> 100 µM
same,TGI,OVCAR-5 ovarian,> 100 µM
same,TGI,SF-268 CNS,> 100 µM
same,TGI,M19-MEL melanoma,> 100 µM
same,TGI,SN12C renal,> 100 µM
same,TGI,CAKI-1 renal,> 100 µM
same,TGI,K-562 leukemia,> 100 µM
same,TGI,A549 NSCLC,> 100 µM
CCN(CC)CCCNc1[nH]ncc2cc3c(nc4ccc(OC)cc43)c(C)c12,TGI,TK-10 renal,28.8 µM
same,TGI,BT-549 breast,30.9 µM
same,TGI,KM12 colon,15.7 µM
same,TGI,UACC-62 melanoma,35.8 µM
same,TGI,MOLT-4 leukemia,10.9 µM
same,TGI,SNB-19 CNS,18 µM
same,TGI,IGROV1 ovarian,19.5 µM
same,TGI,SR leukemia,33.1 µM
same,TGI,NCI-H460 lung,17 µM
same,TGI,MDA-N,22.3 µM
same,TGI,OVCAR-8 ovarian,18.9 µM
same,TGI,SF-539 CNS,15.2 µM
same,TGI,SNB-75 CNS,23 µM
same,TGI,DU-145 prostate,15.9 µM
same,TGI,MCF7 breast,16.6 µM
same,TGI,SK-MEL-28 melanoma,30.8 µM
same,TGI,OVCAR-3 ovarian,19.1 µM
same,TGI,HCT-15 colon,41.3 µM
same,TGI,A498 renal,30.7 µM
same,TGI,OVCAR-4 ovarian,13.8 µM
same,TGI,SK-OV-3 ovarian,22.3 µM
same,TGI,NCI-H23 lung,24.6 µM
same,TGI,RPMI-8226 leukemia,46.8 µM
same,TGI,PC-3 prostate,16.5 µM
same,TGI,ACHN renal,20.9 µM
same,TGI,NCI/ADR-RES ovarian,> 100 µM
same,TGI,SK-MEL-2 melanoma,33.9 µM
same,TGI,NCI-H522 lung,17.4 µM
same,TGI,HCC-2998 colon,18.8 µM
same,TGI,RXF 393 renal,17.7 µM
same,TGI,NCI-H226 lung,22.6 µM
same,TGI,COLO 205 colon,21.2 µM
same,TGI,U251 CNS,16 µM
same,TGI,MDA-MB-435,23.1 µM
same,TGI,SW-620 colon,19.4 µM
same,TGI,LOX IMVI melanoma,15.8 µM
same,TGI,HT29 colon,16.2 µM
same,TGI,EKVX NSCLC,31.4 µM
same,TGI,UO-31 renal,23.8 µM
same,TGI,HCT-116 colon,13 µM
same,TGI,SK-MEL-5 melanoma,29.4 µM
same,TGI,786-0 renal,15.4 µM
same,TGI,MDA-MB-231 breast,21.2 µM
same,TGI,MALME-3M melanoma,28.3 µM
same,TGI,M14 melanoma,25.6 µM
same,TGI,UACC-257 melanoma,33.7 µM
same,TGI,T-47D breast,26.5 µM
same,TGI,CCRF-CEM leukemia,16.5 µM
same,TGI,HL-60(TB) leukemia,0.0166 µM
same,TGI,HOP-62 NSCLC,16.4 µM
same,TGI,SF-295 CNS,25.7 µM
same,TGI,HS 578T breast,28.5 µM
same,TGI,OVCAR-5 ovarian,24.8 µM
same,TGI,HOP-92 NSCLC,29.8 µM
same,TGI,SF-268 CNS,> 48.1 µM
same,TGI,SN12C renal,18.7 µM
same,TGI,CAKI-1 renal,24.7 µM
same,TGI,K-562 leukemia,16.3 µM
same,TGI,A549 NSCLC,22.2 µM
O=C1C(N2CCOCC2)=C(Cl)C(=O)c2ncccc21,TGI,TK-10 renal,4.71 µM
same,TGI,BT-549 breast,> 10 µM
same,TGI,KM12 colon,> 5.35 µM
same,TGI,UACC-62 melanoma,5.51 µM
same,TGI,MOLT-4 leukemia,3.19 µM
same,TGI,SNB-19 CNS,> 10 µM
same,TGI,IGROV1 ovarian,> 10 µM
same,TGI,SR leukemia,2.2 µM
same,TGI,NCI-H460 lung,> 10 µM
same,TGI,MDA-N,3.48 µM
same,TGI,OVCAR-8 ovarian,> 5.73 µM
same,TGI,SF-539 CNS,> 10 µM
same,TGI,SNB-75 CNS,> 10 µM
same,TGI,DU-145 prostate,> 10 µM
same,TGI,MCF7 breast,3.59 µM
same,TGI,SK-MEL-28 melanoma,4.67 µM
same,TGI,OVCAR-3 ovarian,3.39 µM
same,TGI,HCT-15 colon,4.11 µM
same,TGI,A498 renal,> 10 µM
same,TGI,OVCAR-4 ovarian,2.89 µM
same,TGI,SK-OV-3 ovarian,> 10 µM
same,TGI,NCI-H23 lung,3.55 µM
same,TGI,RPMI-8226 leukemia,4.34 µM
same,TGI,PC-3 prostate,> 10 µM
same,TGI,ACHN renal,3.49 µM
same,TGI,NCI/ADR-RES ovarian,> 10 µM
same,TGI,SK-MEL-2 melanoma,3.77 µM
same,TGI,NCI-H522 lung,2.85 µM
same,TGI,HCC-2998 colon,> 9.5 µM
same,TGI,RXF 393 renal,2.91 µM
same,TGI,NCI-H226 lung,> 10 µM
same,TGI,COLO 205 colon,3.91 µM
same,TGI,U251 CNS,> 10 µM
same,TGI,MDA-MB-435,3.22 µM
same,TGI,SW-620 colon,3.72 µM
same,TGI,LOX IMVI melanoma,4.92 µM
same,TGI,HT29 colon,> 10 µM
same,TGI,EKVX NSCLC,> 10 µM
same,TGI,UO-31 renal,> 5.86 µM
same,TGI,HCT-116 colon,3.1 µM
same,TGI,SK-MEL-5 melanoma,3.26 µM
same,TGI,786-0 renal,3.24 µM
same,TGI,MDA-MB-231 breast,5.24 µM
same,TGI,MALME-3M melanoma,3.45 µM
same,TGI,M14 melanoma,4.97 µM
same,TGI,UACC-257 melanoma,3.52 µM
same,TGI,T-47D breast,3.92 µM
same,TGI,CCRF-CEM leukemia,2.16 µM
same,TGI,HL-60(TB) leukemia,0.534 µM
same,TGI,HOP-62 NSCLC,> 10 µM
same,TGI,SF-295 CNS,> 10 µM
same,TGI,HS 578T breast,> 10 µM
same,TGI,OVCAR-5 ovarian,> 10 µM
same,TGI,HOP-92 NSCLC,2.84 µM
same,TGI,SF-268 CNS,> 7.37 µM
same,TGI,SN12C renal,3.15 µM
same,TGI,CAKI-1 renal,> 10 µM
same,TGI,K-562 leukemia,5.03 µM
same,TGI,A549 NSCLC,> 10 µM
